In patent publication US10851400B2, “Assay for high-throughput identification of therapeutic compounds” (priority 2016, dated 2020):
In brackets after ≈: the same amount, converted by molar mass.

Tests used:
[1] = test system: Enterococcus faecium, ATCC 19434; assay: Broth minimum inhibitory concentration (MIC) assay of K15; format: cell-based; conditions: E. faecium; broth MIC in CAMHB, 18-24 hours
Method: (§1) Peptoid K15 was analyzed via a traditional broth minimum inhibitor concentration (MIC) assay against seven different ESKAPE pathogens (Acinetobacter baumanii, ATCC 19606; Enterococcus faecalis, ATCC 29212; Enterococcus faecium, ATCC 19434; Escherichia coli, ATCC 25922; Klebsiella pneumoniae, ATCC 700603; Pseudomonas aeruginosa, ATCC 27853; Staphylococcus aureus, ATCC 29213). For each of the bacterial strains screened in the ESKAPE panel, 1-3 isolated colonies were collected from a TSA plate by a flame sanitized wire loop and resuspended in 5 mL of TSB. The solutions were incubated at 37° C. for 18-24 hours. After the growth period, the turbidity was measured at 600 nm and adjusted to an optical density of 0.08-0.13 by diluting with TSB for an approximate concentration of 1×10^8 CFU/mL. Once the desired OD was achieved, 20 μL of the bacteria suspension were diluted 1:20 in 380 μL Cation Adjusted Mueller-Hinton broth (CAMHB) for a final concentration of 5×10^6 CFU/mL.
(§2) 4 μL of a 10 mM stock of K15 were diluted in […] CAMHB for each bacterial strain assayed (a total of 28 μL stock in 2.478 mL broth for ESKAPE panel). […]
(§3) The prepared plates were incubated for another 18-24 hours. Their respective absorbance at 600 nm was analyzed on a SpectraMax M5 Plate Reader. […] Absorbance at 555, 570, and 585 nm was analyzed to determine viable cells having survived treatment by the antimicrobial compound. […]

[2] = test system: Acinetobacter baumanii, ATCC 19606; assay: as above; format: cell-based, Acinetobacter baumannii; conditions: A. baumannii; broth MIC in CAMHB, 18-24 hours
Method: as §1, §2, §3

ESKAPE pathogens = assay: Broth MIC assay of K15 against the panel of seven ESKAPE pathogens; format: cell-based; conditions: seven pathogens tested
Method: as §1, §2, §3

E. coli (ATCC 25922) = assay: PLAD assay, zone of inhibition around beads in soft agar

| Molecule | MIC [1] [µg/mL] | MIC [2] [µg/mL] | antimicrobial efficacy against the ESKAPE pathogens (ESKAPE pathogens) | zone of inhibition (E. coli (ATCC 25922); proof-of-concept library on PLAD linker, 14 mM TCEP, 37° C. for 18 hours) | zone of inhibition (E. coli (ATCC 25922); PLAD linked C134mer beads, DTT, BME or TCEP at 0, 2, 6, 10, and 14 mM) |
| --- | --- | --- | --- | --- | --- |
| CCCCCCCCCCCCCNCC(=O)N(CCN)CC(=O)N(CC(N)=O)C(C)c1ccccc1 (stereo not drawn) [K15, NTri-Nae-NPea] | 25 (≈ 48.3 µM) | 25 (≈ 48.3 µM) | modest efficacy against six of the seven pathogens tested | largest average zone of inhibition | – |
| NTri-NLys-NPea-NPea-NLys [C134mer, reference compound] | – | – | – | – | concentration dependent zones of inhibition |
